Assay [1] concerns Mytilus edulis. In words: Antifouling activity in Mytilus edulis galloprovincialis assessed as foot contraction at <10 ppm. The class given is functional, organism-based.
For assay [2], the system named is Mytilus edulis. In words: Antifouling activity in Mytilus edulis galloprovincialis assessed as foot contraction at 100 ppm. It is filed as functional.

Active and inactive are the calls of the source. No cut-off for these calls is given here.

The results in this text go back to ChEMBL document CHEMBL1157278, “A new sesquiterpene as an antifouling substance from a palauan marine sponge, dysidea herbacea” (1999).

For `C=C1[C@@H](C)C[C@H]2C[C@]1(C)CCC1=CC(=O)O[C@@]12O`, the outcome in the assay with Mytilus edulis [1] was inactive. Also, the Activity with Mytilus edulis [2] was determined as 100%.
